The text below walks through data of patent US5958882A, “Compounds that inhibit T cell proliferation and methods using the same” (Thomas Jefferson University, priority 1996, dated 1999).

Bridges are numbered along the chain shown (N, C = ends). Where no end group is shown, it is not given here. [ ]: non-standard residue; d: D form.

For test [1], the system named is MLR in a BALB/c (H-2D) anti C3H (H-2K) alloresponse. As to the kind of experiment: MLR of Example 10 (Table II). Type of test: cell-based, mouse. Conditions: MLR without peptide 66000 CPM. The method, then:
(§1) Mice were sacrificed and spleens aseptically removed. Cell suspensions were made by gently pressing spleens through nylon mesh, washing cells with RPMI 1640 and hypotonic lysis of red blood cells. After 3 washes in RPMI 1640, cells were resuspended in complete medium (RPMI 1640, 10% heat inactivated FCS, 2 mM L-glutamine, penicillin/streptomycin, and […]). 1×10^5 responder cells (BALB/c spleen cells) were incubated with 1×10^5 stimulator cells (C3H spleen cells, 2000 rad irradiated) in triplicate in round bottom 96 well plates (final volume 200 μl), and incubated with the indicated concentration of peptide (0.01, 0.1, 1, 10, 100 and 1000 μM peptide) for 5 days at 37° C., 5% CO2. 1 μCi/WELL OF [^3 H] TdR was added 12 hours before thymidine incorporation was measured. Labelled DNA from cells was harvested onto glass fiber filters with a PHD cell harvester (Cambridge, Mass.), and CPM determined by liquid scintillation counting with the use of a 1209 Rackbeta (LKB, Piscataway, N.J.).
A MLR was performed as described in Example 6. h84-101 C--C, SEQ ID NO:4, SEQ ID NO:5, SEQ ID NO:6, SEQ ID NO:11, (SEQ ID NO:4+SEQ ID NO:5), and a monoclonal antibody directed against CD4 (OKT4A) were tested for their effect on MLR in a BALB/c (H-2D) anti C3H (H-2K) alloresponse. MLR was also performed without the addition of peptide or antibody (MLR). Each peptide individually has inhibitory activity to a moderate level (30-50%), but when two analogs are added together (SEQ ID NO:4 and SEQ ID NO:5) the effect was synergistic and the inhibition approached 100%, as compared to a monoclonal antibody directed against CD4 (OKT4A).

For test [2], the system named is human T cells stimulated with PHA. The experiment in a line: Phytohemagglutinin T cell proliferation assay. Type of test: cell-based. The method, then: The mitogen phytohemagglutinin (PHA) activates T cells by cross-linking CD3/TCR complexes. Human blood is collected from volunteer donors. Lymphocytes are purified by separation over a Ficoll gradient. T cells are separated by rosetting to sheep red blood cells. The enriched T cell population is stimulated with 5 μg/ml phytohemagglutinin (PHA). FIG. 7 illustrates the ability of the D2 peptide analogs to inhibit T cell proliferation in response to PHA stimulation. […] Results are illustrated in FIG. 7.

A further test has as its system EAE in SJL mice. As to the kind of experiment: Experimental allergic encephalomyelitis (EAE) model. Type of test: in vivo, mouse. Conditions: for maximum EAE incidence: SJL mice, untreated 83%; for maximum mean EAE severity grade (0-5): untreated 2.17; for average time of initial onset: untreated day 15.6. The method, then: Experimental allergic encephalomyelitis (EAE) is considered to be the best experimental animal model for the study of multiple sclerosis since it shares many of the same clinical and histopathological features as the human disorder. EAE can be elicited in several animal species, including mice, by inoculation of crude CNS tissue extracts, purified MBP, proteolipids, or synthetic polypeptides composed of the active portions of these antigenic molecules. Antigen is administered subcutaneously in conjunction with complete Freund's adjuvant (CFA) and, in our modification of the standard procedure, is given twice on days 0 and 7 for induction (Korngold et al., (1986) Immunogenetics 24:309-315, which is incorporated herein by reference). Symptoms of disease usually occur between 15-19 days after initial immunization and may last for up to 25 days. Mice usually recover from the acute EAE attack, but may relapse at a later time, or are susceptible to an enhanced disease episode upon further immunization.
SJL mice, which are highly susceptible to the induction of acute EAE, were immunized as described in Korngold et al., (1986) Immunogenetics 24:309-315. Accordingly, 1 mg of crude SJL mouse spinal cord homogenate (MSCH) was diluted in 0.15 ml phosphate buffered solution and emulsified in an equal volume of CFA. 0.15 ml of the inoculum was injected subcutaneously in each of two sites on the posterior flank of mice anesthetized with metaphane. A secondary inoculation, similar to the primary, was administered at 7 days. Mice were evaluated daily for symptoms of disease and graded 0-5: 0=no clinical expression of disease; 1=flaccid tail with or without mild hind leg weakness; 2=flaccid tail with moderate hind leg weakness; 3=severe hind leg weakness and mild forelimb weakness; 4=total hind leg paralysis associated with moderate forelimb weakness; and 5=quadriplegia or a moribund state.
The mice were divided into four groups: the first left untreated; the second injected on days 2 and 8 intravenously 10 (i.v.) with 0.5 mg of the D amino acid CDR3-like peptide #1; the third injected on day 12 i.v. with the D amino acid CDR3-like peptide #1; and the fourth injected i.v. on days 2 and 8 with a control D-polypeptide of similar length to the D amino acid CDR3-like peptide #1.
With the same experiment described above, mice from the different treatment groups were scored for the clinical expression of disease. […] The ifferences were statistically significant, by Tukey multiple analysis of variance, between: the untreated and the D amino acid CDR3-like peptide #1 day 2,8 treated group on days 16-19 and 24 […]; the untreated and the D amino acid CDR3-like peptide #1 day 12 treated group on days 16-24 (0.01≤p≤0.05); and the control peptide day 2,8 group and the D amino acid CDR3-like peptide #1 day 2,8 treated group on day 17 (p=0.02).
To investigate whether D amino acid CDR3-like peptide #1 could have an effect upon the development of EAE once symptoms have already appeared and therefore corresponding to the effector phase of the disease, 30 SJL mice were inoculated on days 0 and 7 with MSCH and CFA, as described above. 12 mice that had reached a grade 1 level of clinical EAE expression by day 16 were selected and randomly grouped to be left untreated or treated with 0.5 mg i.v. of D amino acid CDR3-like peptide #1. […] At day 18, the difference between the untreated and treated groups was statistically significant (p=0.003).

In test [3] the test system is lethal GVHD in irradiated DBA/2 mice given B10.D2 CD4+ T cells. As to the kind of experiment: GVHD mediated by CD4+ T cells. Type of test: in vivo, mouse. Conditions: 0.5 mg i.v. on days 0 and 3. The source says:
The transplantation of B10.D2 CD4+ T cells along with T-cell-depleted bone marrow has been shown previously to induce a lethal GVHD response in irradiated (850 cGy) DBA/2 mice (Korngold and Sprent, (1987) J. Exp. Med. 165:1552-1564).

In test [4] the test system is BALB/c spleen cells (responder) with irradiated C3H spleen cells (stimulator). The experiment in a line: Mixed lymphocyte reaction (MLR), BALB/c anti-C3H alloresponse. It counts as cell-based, mouse.
Source text: The mixed lymphocyte reaction (MLR) is the response of one individual's T lymphocytes to those of a major histocompatibility complex (MHC) mismatched donor. CD4+ T cells recognize the foreign MHC proteins and proliferate in response to this, in a manner highly dependent on the CD4 molecule.
as §1
A MLR was performed as described in Example 6. Cells were incubated with a 0.01, 0.1, 1, 10, 100, and 1000 μM of each of the following peptides: SEQ ID NO:1 (mPGPtide), and control peptides, SEQ ID NO:3 (hPGPtides) and SEQ ID NO:13 (mCDR3 scramble). […] Activity was approximately 85000 CPM after the addition of 0.01 μM SEQ ID NO:1, and approximately 30000 CPM after the addition of 200 μM SEQ ID NO:1. […] Activity was approximately 75000 CPM at 0.01 μM SEQ ID NO:3, and approximately 60000 CPM after the addition of 200 μM SEQ ID NO:3. Similarly, activity was approximately 80000 CPM after the addition of 0.01 μM of SEQ ID NO:13, and approximately 90000 CPM after the addition of 200 μM SEQ ID NO:13. […]

Test [5] concerns human mixed lymphocyte reaction. The experiment in a line: Human mixed lymphocyte reaction (Example 8, FIG. 3). Type of test: cell-based.

With LESPPGSSPSV [SEQ ID NO:5], the CPM in test [1] was found to be 48000 CPM. Moreover, the “CPM after PHA stimulation” value in test [2] (0.25 μM peptide, 5 μg/ml PHA) came to 53500 CPM; in test [2] (250 μg peptide), 39500 CPM.

Turning to TCTNLQNQKKVECK [SEQ ID NO:4], the CPM in test [1] is listed as 42000 CPM. Besides, the “CPM after PHA stimulation” value in test [2] (0.25 μM peptide, 5 μg/ml PHA) came to 47000 CPM; in test [2] (250 μg peptide), 38000 CPM.

As to “CPGPEEKRNELEC ([dC][dP]G[dP][dE][dE][dK][dR][dN][dE][dL][dE][dC]; disulfide 1-13 (inferred)) [D amino acid CDR3-like peptide #1]”, the “EAE severity grade reached, effector phase” value in the test on EAE in SJL mice (0.5 mg i.v. at grade 1 on day 16, value on day 19, untreated 2.4 by day 18) is 1.17. Besides, the “maximum EAE incidence” value amounted to 31% in the test on EAE in SJL mice (i.v. on day 12); 36% with EAE in SJL mice (i.v. on days 2 and 8 (0.5 mg)). For the same substance, in the test on EAE in SJL mice (groups treated on days 2,8 or day 12), the “days of peak EAE severity” value was in the range of 19 to 21 days. The “effect on the course of disease progression (EAE)” value in the test on EAE in SJL mice (murine EAE model) is given as “dramatically intervened in the progression”. Besides, the results for the “maximum mean EAE severity grade (0-5)” value in the test on EAE in SJL mice (treated on day 12) and with EAE in SJL mice (treated on days 2,8) were 0.75 and 0.77, respectively. Also, the “average time of initial onset” value in the test with EAE in SJL mice (treated on day 12) worked out at 17.0 days; with EAE in SJL mice (treated on days 2,8) it was 17.1 days. For the same substance, the incidence of survival in test [3] (untreated 83% lethal GVHD) is on record as 57%. In test [3] (untreated 15 days, experiment ended at 65 days), the median survival time result was “greater than 65 days”.

On to CLLVFEVEDQKEEVQGLC [SEQ ID NO:13], for which the entries for the “MLR activity (CPM)” value in test [4] (0.01 μM peptide) and in test [4] (200 μM peptide) were “approximately 80000 CPM” and “approximately 90000 CPM”, respectively. Further, the “inhibitory activity on MLR” value in test [4] (BALB/c anti-C3H MLR, 5 days, [3H]TdR incorporation) was “little or no activity”. Also, the “% CPM of the positive control” value in test [5] (500 μM peptide) is recorded as “about 100%”. Besides, in test [5] (0.1-1000 μM), the “inhibition of the proliferative response of the human MLR” value is “little or no inhibition”.

In the case of C*RSPRGKNC [SEQ ID NO:6], the CPM in test [1] is 50000 CPM. Moreover, the “CPM after PHA stimulation” value in test [2] (0.25 μM peptide, 5 μg/ml PHA) came out at 48000 CPM; in test [2] (250 μg peptide) it was 39500 CPM.
